Earlier results as cited in patent US7087617B2, “Substituted pyrimidine derivatives” (Pfizer Inc., priority 2003, dated 2006).

Conditions: for effect on the "anxiogenic" effects / actions of CRF in the conflict test: rats, CRF-induced effects

Structure (SMILES) | effect on the "anxiogenic" effects / actions of CRF in the conflict test | behavioral activity alone in the operant conflict test (compound alone, without CRF)
CNC(=O)c1cc2c(cn1)[nH]c1ccccc12 [FG 7142] | enhanced the actions of CRF | –
CCOC(=O)c1ncn2c1CN(C)C(=O)c1cc(F)ccc1-2 [Ro 15-1788] | reversed the effects of CRF in a dose-dependent manner | without behavioral activity alone
